# “And” between values parts separate entries of the source, which are not always exact repeats. Equal entries are not always repeated. “Also recorded” adds a separate entry of the source.
# What was measured:
# [1] = system: μ-opioid receptors; parameters: method as in PMID 27192616; conditions: cited from earlier work
# [2] = biological target: T1, α-glucosidase (Saccharomyces cerevisiae, UniProt P53341); test: α-glucosidase inhibition and kinetics, pNPG substrate; format: biochemical; conditions: Lineweaver–Burk plots
# Protocol: The assay was performed as described previously with some modifications. The kinetic parameters (Michaelis–Menten constant; Km and maximum velocity; Vmax) of α-glucosidase were determined by using p-nitrophenol-α-D-glucopyranoside (pNPG) as a substrate. Briefly, 0.1 unit of α-glucosidase (Sigma-Aldrich, St Louis, MO, USA) were incubated at 37 °C with 100 µL of total reaction. After 10 min, the reactions were started by adding 50 µL pNPG (Sigma-Aldrich, St Louis, MO, USA, lot number 3698310) ranging from 0 to 15 mM, and the p-nitrophenol product was measured at 405 nm using a microplate reader (Multiskan SkyHigh, Thermo Scientific, Göteborg, Sweden). The substrate concentration rates were plotted against pNPG concentrations and fitted to the Michaelis–Menten equation.
# The IC50 was determined by comparing the rate of each test inhibitor concentration to that of the vehicle control (ethanol), and the IC50 was calculated by plotting the remaining activity of each inhibitor concentration to the log test inhibitor concentration. […] After co-incubation with each inhibitor for 5 min at 37 °C, the reactions were initiated by adding the p-NPG substrate (0–15 mM). The inhibition constant (Ki) values were determined from Lineweaver–Burk Plots.
# [3] = biological target: T1, α-glucosidase; test: combination of kratom extracts or mitragynine with acarbose on α-glucosidase; format: biochemical
# Protocol: After 10 min, the residual reactions were started by the addition of 50 µL of 0.3 mM pNPG. The reactions were left to proceed for 10 min. The absorption at 405 nm was then measured using a microplate reader, and IC50 values were calculated by GraphPad Prism version 9.3.1.
# [4] = biological target: T2, pancreatic lipase (Sus scrofa, UniProt P00591); test: pancreatic lipase inhibition and kinetics, 4MUO substrate; format: biochemical; conditions: for Pancreatic Lipase mode of inhibition: Lineweaver–Burk plots
# T2 construct: purchased Sigma-Aldrich
# T2 sequence (P00591 1-450): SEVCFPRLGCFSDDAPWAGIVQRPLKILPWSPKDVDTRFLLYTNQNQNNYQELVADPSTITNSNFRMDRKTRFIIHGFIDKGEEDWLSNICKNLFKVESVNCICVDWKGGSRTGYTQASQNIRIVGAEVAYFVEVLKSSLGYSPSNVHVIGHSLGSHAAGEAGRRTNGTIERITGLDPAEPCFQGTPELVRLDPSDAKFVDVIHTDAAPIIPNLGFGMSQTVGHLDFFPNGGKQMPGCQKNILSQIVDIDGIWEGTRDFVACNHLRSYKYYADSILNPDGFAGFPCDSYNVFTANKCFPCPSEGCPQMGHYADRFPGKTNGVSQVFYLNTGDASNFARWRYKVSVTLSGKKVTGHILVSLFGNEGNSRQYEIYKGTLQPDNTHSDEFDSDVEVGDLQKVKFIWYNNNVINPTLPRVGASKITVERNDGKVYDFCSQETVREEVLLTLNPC
# Protocol: The kinetic parameters (Km and Vmax) of pancreatic lipase were determined using 4-methylumbelliferyl oleate (4MUO) as the substrate (Sigma-Aldrich, St Louis, MO, USA, Lot number BCCF8781). Briefly, 0.5 units of lipase (Sigma-Aldrich, St Louis, MO, USA, Lot number SLCG8579) were incubated in 96-well plates with a total volume of 100 µL (15 mM Tris-HCl buffer, pH 8.0) at 37 °C for 10 min. The reactions were initiated by adding 50 µL of 4MUO ranging from 0 to 5 mM. […] The rates at which substrate concentrations were plotted against 4MUO concentrations and fitted to the Michaelis–Menten equation. […] After 10 min, the reactions were started by adding 0.35 mM 4MUO. The reaction rates were monitored by measuring the release of 4MU from 4MUO. […] The remaining activity of lipase was determined by comparing the rate of each test inhibitor concentration to the vehicle control (ethanol), and IC50 was calculated by plotting the remaining activity of each inhibitor concentration to the log test inhibitor concentration.
# [5] = system: lipase; parameters: method as in PMID 29292744; conditions: therapeutic oral dose of 120 mg three times per day; cited from earlier work
# T1 sequence (P53341 whole entry): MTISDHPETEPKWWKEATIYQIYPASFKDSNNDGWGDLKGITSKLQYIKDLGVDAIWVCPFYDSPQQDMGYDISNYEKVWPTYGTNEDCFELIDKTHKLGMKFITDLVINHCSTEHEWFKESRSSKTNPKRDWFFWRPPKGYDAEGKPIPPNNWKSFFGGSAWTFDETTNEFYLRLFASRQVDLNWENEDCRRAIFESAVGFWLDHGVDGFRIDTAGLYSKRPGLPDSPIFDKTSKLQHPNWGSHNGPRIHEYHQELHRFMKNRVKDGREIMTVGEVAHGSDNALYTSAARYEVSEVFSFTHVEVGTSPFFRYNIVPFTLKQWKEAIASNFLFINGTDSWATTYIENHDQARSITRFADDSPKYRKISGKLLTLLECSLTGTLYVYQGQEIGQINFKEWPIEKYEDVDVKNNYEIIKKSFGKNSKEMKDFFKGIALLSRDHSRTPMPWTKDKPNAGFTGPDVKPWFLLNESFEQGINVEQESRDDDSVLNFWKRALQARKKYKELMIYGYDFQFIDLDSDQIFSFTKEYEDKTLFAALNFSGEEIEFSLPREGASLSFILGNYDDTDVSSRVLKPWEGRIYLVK
compound,measurement,setting,value
CC[C@@H]1CN2CC[C@@]3(O)C(=Nc4cccc(OC)c43)[C@@H]2C[C@@H]1/C(=C\OC)C(=O)OC [7-hydroxymitragynine],"analgesic activity, fold higher than that of mitragynine",[1],16 fold
"C[C@H]1O[C@H](O[C@H]2[C@H](O)[C@@H](O)[C@@H](O[C@H]3[C@H](O)[C@@H](O)C(O)O[C@@H]3CO)O[C@@H]2CO)[C@H](O)[C@@H](O)[C@@H]1N[C@H]1C=C(CO)[C@@H](O)[C@H](O)[C@H]1O (stereo partly shown) [Acarbose, reference compound]",α-Glucosidase mode of inhibition,[2],mixed-type
same,α-Glucosidase mode of inhibition,[2]; listed as acarbose,mixed-type inhibition mode
CC[C@@H]1CN2CCc3c([nH]c4cccc(OC)c34)[C@@H]2C[C@@H]1/C(=C\OC)C(=O)OC [Mitragynine],α-Glucosidase mode of inhibition,[2],noncompetitive
same,α-Glucosidase mode of inhibition,[2]; listed as mitragynine,noncompetitive inhibitor; also recorded: noncompetitive mode
same,potency of combination with acarbose compared with kratom extract combinations,[3]; mitragynine 100 µM with acarbose,less potency than that of kratom extracts
same,IC50 of combination with acarbose compared with kratom extract combinations,[3]; mitragynine 200 and 300 µM with acarbose,decreased IC50 values compared with that of mixed kratom extracts
same,interaction with acarbose in α-glucosidase inhibition,[3]; mitragynine combined with acarbose,synergistic interaction; also recorded: synergistic effect
same,"pancreatic lipase IC50, fold higher than that of orlistat",[4],30 fold
same,IC50,"[4]; 0.35 mM 4MUO, 37 °C, mean ± SD, n = 3",24.9 µM and 24.7 µM
same,Pancreatic Lipase mode of inhibition,[4],competitive
same,Pancreatic Lipase mode of inhibition,[4]; listed as mitragynine,competitive inhibitors; also recorded: competitive mode
same,Ki,"[4]; from Lineweaver–Burk plots, 4MUO substrate",14.9 µM
"CCCCCCCCCCC[C@@H](C[C@@H]1OC(=O)[C@H]1CCCCCC)OC(=O)[C@H](CC(C)C)NC=O [Orlistat, reference compound]",reduction of dietary fat absorption,[5],one-third
same,Pancreatic Lipase mode of inhibition,[4],competitive
same,Pancreatic Lipase mode of inhibition,[4]; listed as orlistat,competitive inhibitors; also recorded: competitive mode

# — paper PMC9572452, “Inhibition of α-Glucosidase and Pancreatic Lipase Properties of Mitragyna speciosa (Korth.) Havil. (Kratom) Leaves” (Nutrients, 2022)
